Where two headings read alike, the source gives them in different places.
Key:
Type in all cases: biochemical
human cathepsin S (CatS) = human cathepsin S (CatS) (Homo sapiens (Human), UniProt P25774); assay: CatS functional enzyme assay; conditions: for Selectivity Ki(hCatS)/Ki(hCatK): ratio Ki(hCatS)/Ki(hCatK); for Ki: read-out: hCatS, Ki; for inhibition at 10 µM: read-out: hCatS, inhibition [%] at 10 μM
Description: Reference and test compounds were assayed for inhibitory potency (IC50) against human cathepsins using the following assay setups: Recombinant human cathepsins (CatS, CatK, CatL) were purchased from a Enzo Life Sciences. […] For CatS, the enzyme (0.0007 mU/well) was incubated with fluorogeninc substrate (Z-VVR-AMC, 5 μM) at RT for 10 min. For CatK the enzyme (0.00175 mU/well) was incubated with fluorogeninc substrate (Z-FR-AMC, 40 μM) at RT for 10 min. For CatL, the enzyme (0.000874 mU/well) was incubated with fluorogeninc substrate (Z-VVR-AMC, 40 μM) at RT for 10 min. Flourogenic substrate turnover was detected using a microplate reader (Synergy™ H4, BioTek). Ki values were calculated using the Cheng Prusoff equation (Cheng & Prosoff 1973).

human cathepsin K (CatK) = human cathepsin K (CatK) (Homo sapiens (Human), UniProt P43235); assay: CatK functional enzyme assay; conditions: for Ki: recombinant human CatK, substrate Z-FR-AMC 40 μM, pH 5.5, Ki by Cheng Prusoff equation, read-out: hCatK, Ki
Sequence of human cathepsin K (CatK) (P43235 115-329): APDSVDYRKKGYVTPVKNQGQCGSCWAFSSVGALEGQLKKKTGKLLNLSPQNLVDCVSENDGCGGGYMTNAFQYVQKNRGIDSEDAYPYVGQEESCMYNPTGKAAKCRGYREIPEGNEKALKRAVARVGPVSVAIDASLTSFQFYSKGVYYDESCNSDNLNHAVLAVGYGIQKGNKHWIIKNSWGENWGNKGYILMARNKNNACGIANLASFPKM
Description: (§1) Reference and test compounds were assayed for inhibitory potency (IC50) against human cathepsins using the following assay setups:
(§2) Recombinant human cathepsins (CatS, CatK, CatL) were purchased from a Enzo Life Sciences. All assays were carried out in 96-well format using a buffer of 50 mM KH2PO4, 50 mM NaCl, 2 mM EDTA, 0.5 mM DTT and 1% Triton-X-100, pH 6.5 for Cathepsin S and a buffer of 50 mM NaOAc, 10 mM EDTA, 1 mM DTT and 0.01% Triton-X-100, pH 5.5 for CatK/L/B. For CatS, the enzyme (0.0007 mU/well) was incubated with fluorogeninc substrate (Z-VVR-AMC, 5 μM) at RT for 10 min. For CatK the enzyme (0.00175 mU/well) was incubated with fluorogeninc substrate (Z-FR-AMC, 40 μM) at RT for 10 min. For CatL, the enzyme (0.000874 mU/well) was incubated with fluorogeninc substrate (Z-VVR-AMC, 40 μM) at RT for 10 min. Flourogenic substrate turnover was detected using a microplate reader (Synergy™ H4, BioTek). Ki values were calculated using the Cheng Prusoff equation (Cheng & Prosoff 1973).

human cathepsin L (CatL) = human cathepsin L (CatL) (Homo sapiens (Human), UniProt P07711); assay: CatL functional enzyme assay; conditions: read-out: hCatL, inhibition [%] at 31.6 μM
Sequence of human cathepsin L (CatL) (P07711 114-333): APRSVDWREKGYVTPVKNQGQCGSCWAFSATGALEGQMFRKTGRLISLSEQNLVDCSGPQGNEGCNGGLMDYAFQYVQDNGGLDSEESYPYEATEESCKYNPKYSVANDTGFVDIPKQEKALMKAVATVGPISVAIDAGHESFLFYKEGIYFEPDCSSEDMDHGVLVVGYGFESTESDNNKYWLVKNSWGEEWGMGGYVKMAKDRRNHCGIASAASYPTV
Description: as §1, §2

[1] = recombinant human CatS, substrate Z-VVR-AMC 5 μM, pH 6.5, Ki by Cheng Prusoff equation

Sequence of human cathepsin S (CatS) (P25774 115-331): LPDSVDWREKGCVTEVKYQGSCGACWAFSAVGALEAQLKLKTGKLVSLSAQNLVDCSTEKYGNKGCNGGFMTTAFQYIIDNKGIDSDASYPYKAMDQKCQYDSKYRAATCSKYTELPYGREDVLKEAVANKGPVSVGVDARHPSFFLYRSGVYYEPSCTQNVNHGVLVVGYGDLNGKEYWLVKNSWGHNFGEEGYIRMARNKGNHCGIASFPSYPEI

Row | Structure (SMILES) | Selectivity Ki(hCatS)/Ki(hCatK) (human cathepsin S (CatS)) | Ki (human cathepsin S (CatS)) | Ki (human cathepsin K (CatK)) | inhibition at 31.6 µM (human cathepsin L (CatL)) | Ki (human cathepsin S (CatS); [1]) | inhibition at 10 µM (human cathepsin S (CatS)) | inhibition at 10 µM (human cathepsin K (CatK); read-out: hCatK, inhibition [%] at 10 μM)
1 | O=C(N[C@H](C(=O)N1C[C@H](Cl)[C@H]2OCC(=O)[C@H]21)C1CCCCC1)c1ccc(-c2ccccn2)s1 [Example 1, N-((S)-2-((3aS,6S,6aS)-6-chloro-3-oxotetrahydro-2H-furo[3,2-b]pyrrol-4(5H)-yl)-1-cyclohexyl-2-oxoethyl)-5-(pyridin-2-yl)thiophene-2-carboxamide] | 28.7 | 402 nM | 14 nM | 3% | – | – | –
2 | O=C(N[C@H](C(=O)N1C[C@H](Cl)[C@H]2OCC(=O)[C@H]21)C1CCCCC1)c1ccc(-c2cccnc2)s1 [Example 2, N-((S)-2-((3aS,6S,6aS)-6-chloro-3-oxotetrahydro-2H-furo[3,2-b]pyrrol-4(5H)-yl)-1-cyclohexyl-2-oxoethyl)-5-(pyridin-3-yl)thiophene-2-carboxamide] | 23.0 | 115 nM | 5 nM | 10% | – | – | –
3 | O=C(N[C@H](C(=O)N1C[C@H](Cl)[C@H]2OCC(=O)[C@H]21)C1CCCCC1)c1ccc(-c2ccncc2)s1 [Example 3, N-((S)-2-((3aS,6S,6aS)-6-chloro-3-oxotetrahydro-2H-furo[3,2-b]pyrrol-4(5H)-yl)-1-cyclohexyl-2-oxoethyl)-5-(pyridin-4-yl)thiophene-2-carboxamide] | 34.3 | 103 nM | 3 nM | 5% | – | – | –
4 | O=C(N[C@H](C(=O)N1C[C@H](Cl)[C@H]2OCC(=O)[C@H]21)C1CCCCC1)c1ccc(-c2cnccn2)s1 [Example 4, N-((S)-2-((3aS,6S,6aS)-6-chloro-3-oxotetrahydro-2H-furo[3,2-b]pyrrol-4(5H)-yl)-1-cyclohexyl-2-oxoethyl)-5-(pyrazin-2-yl)thiophene-2-carboxamide] | 13.1 | 184 nM | 14 nM | 17% | – | – | –
5 | O=C(N[C@H](C(=O)N1C[C@H](Cl)[C@H]2OCC(=O)[C@H]21)C1CCCCC1)c1ccc(-c2cccnn2)s1 [Example 6, N-((S)-2-((3aS,6S,6aS)-6-chloro-3-oxotetrahydro-2H-furo[3,2-b]pyrrol-4(5H)-yl)-1-cyclohexyl-2-oxoethyl)-5-(pyridazin-3-yl)thiophene-2-carboxamide] | 5.5 | – | 11 nM | 36% | 60 nM | – | –
6 | O=C(N[C@H](C(=O)N1C[C@H](Cl)[C@H]2OCC(=O)[C@H]21)C1CCCCC1)c1ccc(-c2ncccn2)s1 [Example 9, N-((S)-2-((3aS,6S,6aS)-6-chloro-3-oxotetrahydro-2H-furo[3,2-b]pyrrol-4(5H)-yl)-1-cyclohexyl-2-oxoethyl)-5-(pyrimidin-2-yl)thiophene-2-carboxamide] | 81.7 | – | 18 nM | 4% | 1470 nM | – | –
7 | O=C(N[C@H](C(=O)N1C[C@H](Cl)[C@H]2OCC(=O)[C@H]21)C1CCCCC1)c1ccc(-c2cccnc2)o1 [Example 10, N-((S)-2-((3aS,6S,6aS)-6-chloro-3-oxotetrahydro-2H-furo[3,2-b]pyrrol-4(5H)-yl)-1-cyclohexyl-2-oxoethyl)-5-(pyridin-3-yl)furan-2-carboxamide] | 11.3 | – | – | 16% | – | – | –
8 | O=C(N[C@H](C(=O)N1C[C@H](Cl)[C@H]2OCC(=O)[C@H]21)C1CCCCC1)c1ccc(-c2cncnc2)o1 [Example 11, N-((S)-2-((3aS,6S,6aS)-6-chloro-3-oxotetrahydro-2H-furo[3,2-b]pyrrol-4(5H)-yl)-1-cyclohexyl-2-oxoethyl)-5-(pyrimidin-5-yl)furan-2-carboxamide] | 1.1 | – | 87 nM | 14% | 99 nM | – | –
9 | O=C(N[C@H](C(=O)N1C[C@H](Cl)[C@H]2OCC(=O)[C@H]21)C1CCCCC1)c1ccc(-c2ccncc2)o1 [Example 12, N-((S)-2-((3aS,6S,6aS)-6-chloro-3-oxotetrahydro-2H-furo[3,2-b]pyrrol-4(5H)-yl)-1-cyclohexyl-2-oxoethyl)-5-(pyridin-4-yl)furan-2-carboxamide] | 10.4 | – | 50 nM | 18% | 521 nM | – | –
10 | O=C(N[C@H](C(=O)N1C[C@H](Cl)[C@H]2OCC(=O)[C@H]21)C1CCCCC1)c1cnc(-c2cccnc2)s1 [Example 13, N-((S)-2-((3aS,6S,6aS)-6-chloro-3-oxotetrahydro-2H-furo[3,2-b]pyrrol-4(5H)-yl)-1-cyclohexyl-2-oxoethyl)-2-(pyridin-3-yl)thiazole-5-carboxamide] | – | – | 29 nM | 16% | – | 73% | –
11 | Cc1nc(-c2cccnc2)sc1C(=O)N[C@H](C(=O)N1C[C@H](Cl)[C@H]2OCC(=O)[C@H]21)C1CCCCC1 [Example 14, N-((S)-2-((3aS,6S,6aS)-6-chloro-3-oxotetrahydro-2H-furo[3,2-b]pyrrol-4(5H)-yl)-1-cyclohexyl-2-oxoethyl)-4-methyl-2-(pyridin-3-yl)thiazole-5-carboxamide] | – | – | – | 21% | – | 70% | 88%
12 | O=C(N[C@H](C(=O)N1C[C@H](Cl)[C@H]2OCC(=O)[C@H]21)C1CCCCC1)c1ncc(-c2cccnn2)s1 [Example 15, N-((S)-2-((3aS,6S,6aS)-6-chloro-3-oxotetrahydro-2H-furo[3,2-b]pyrrol-4(5H)-yl)-1-cyclohexyl-2-oxoethyl)-5-(pyridazin-3-yl)thiazole-2-carboxamide] | 7.7 | – | 25 nM | 12% | 193 nM | – | –
13 | O=C(N[C@H](C(=O)N1C[C@H](Cl)[C@H]2OCC(=O)[C@H]21)C1CCCCC1)c1ccc(-c2cncc(F)c2)s1 [Example 16, N-((S)-2-((3aS,6S,6aS)-6-chloro-3-oxotetrahydro-2H-furo[3,2-b]pyrrol-4(5H)-yl)-1-cyclohexyl-2-oxoethyl)-5-(5-fluoropyridin-3-yl)thiophene-2-carboxamide] | 19.9 | – | 13 nM | 15% | 259 nM | – | –
14 | O=C(N[C@H](C(=O)N1C[C@H](Cl)[C@H]2OCC(=O)[C@H]21)C1CCCCC1)c1cnc(-c2ccnnc2)o1 [Example 21, N-((S)-2-((3aS,6S,6aS)-6-chloro-3-oxotetrahydro-2H-furo[3,2-b]pyrrol-4(5H)-yl)-1-cyclohexyl-2-oxoethyl)-2-(pyridazin-4-yl)oxazole-5-carboxamide] | 1.9 | – | – | 15% | – | – | –
15 | O=C(N[C@H](C(=O)N1C[C@H](Cl)[C@H]2OCC(=O)[C@H]21)C1CCCCC1)c1ccc(-c2ccncn2)o1 [Example 27, N-((S)-2-((3aS,6S,6aS)-6-chloro-3-oxotetrahydro-2H-furo[3,2-b]pyrrol-4(5H)-yl)-1-cyclohexyl-2-oxoethyl)-5-(pyrimidin-4-yl)furan-2-carboxamide] | 2.7 | – | – | 18% | – | – | –
16 | O=C(N[C@H](C(=O)N1C[C@H](Cl)[C@H]2OCC(=O)[C@H]21)C1CCCCC1)c1nnc(-c2ccncc2)s1 [Example 28, N-((S)-2-((3aS,6S,6aS)-6-chloro-3-oxotetrahydro-2H-furo[3,2-b]pyrrol-4(5H)-yl)-1-cyclohexyl-2-oxoethyl)-5-(pyridin-4-yl)-1,3,4-thiadiazole-2-carboxamide] | – | – | – | 14% | – | 83% | –
17 | Cc1nccc(-c2ccc(C(=O)N[C@H](C(=O)N3C[C@H](Cl)[C@H]4OCC(=O)[C@H]43)C3CCCCC3)s2)n1 [Example 29, N-((S)-2-((3aS,6S,6aS)-6-chloro-3-oxotetrahydro-2H-furo[3,2-b]pyrrol-4(5H)-yl)-1-cyclohexyl-2-oxoethyl)-5-(2-methylpyrimidin-4-yl)thiophene-2-carboxamide] | 26.4 | – | – | 6% | – | – | –
18 | COc1ccc(-c2ccc(C(=O)N[C@H](C(=O)N3C[C@H](Cl)[C@H]4OCC(=O)[C@H]43)C3CCCCC3)s2)nn1 [Example 34, N-((S)-2-((3aS,6S,6aS)-6-chloro-3-oxotetrahydro-2H-furo[3,2-b]pyrrol-4(5H)-yl)-1-cyclohexyl-2-oxoethyl)-5-(6-methoxypyridazin-3-yl)thiophene-2-carboxamide] | 21.5 | – | – | 15% | – | – | –

— US9725459B2, “3-oxo-tetrahydro-furo[3,2-B]pyrrol-4(5H)-yl) derivatives I” (GRÜNENTHAL GMBH, priority 2014, dated 2017)
